In one test the test system is NMT1. Briefly: MCF7 gene expression of NMT following insulin stimulation or rapamycin treatment (NMT1). The test is classed as cell-based. The following applies: MCF7 cells. From the text:
(§1) Example 9—MCF7 Gene Expression of NMT and WT1 Regulated Genes Following Insulin Stimulation
(§2) NMT1 was also shown to bind to regions of DNA containing BASP1 regulated growth genes. […] This supports our prediction that phosphorylation is the leading PI3K/AKT/mTOR mediated regulatory mechanism responsible for NMT1 modulation.

The subject of the next test is NMT2. The experiment in a line: MCF7 gene expression of NMT following insulin stimulation or rapamycin treatment (NMT2). It is filed as cell-based. The following applies: MCF7 cells.
Description: as §1, §2

Turning to insulin, the “NMT1 expression following treatment” value with NMT1 was “little change”. Further, the “NMT2 expression following treatment” value in the test with NMT2 is given as “little change”.
